Assay results: patent US20100048594A1, “USE OF CYTOHESIN INHIBITORS FOR CHEMICALLY INDUCING LONGEVITY” (RHEINISCHE FRIEDRICH-WILHELMS UNIVERSITAT, priority 2006, published 2010)

Columns and labels:
[1] = tested on: FoxO1A; test: Insulin-dependent phosphorylation of FoxO1A in HepG2 cells; assay type: cell-based, human; conditions: HepG2 cells, 5, 10, 15 μM compound, 100 nM insulin; based upon concentration
[2] = tested on: Akt; test: Insulin-stimulated phosphorylation of Akt in Drosophila S2 Schneider cells (Western blot); assay type: cell-based; conditions: 10 μM compound 2 hours, 10 μg/ml human insulin 15 minutes
Method: 10^6 Drosophila S2 cells (Schneider, 1972. J. Embryol. Exp. Morphol. 27, 353) were seeded in cell culture medium (PAN company) with 10% fetal calf serum and 1% streptomycin, penicillin (Gibco) in 35 mm cell culture plates (Nunc company) and cultivated for 2 days at 25° C. to 70-80% confluence. After 2 days, 0.5% (v/v) of the medium DMSO was added, and, based upon the experiment, 10 μM of the compound according to formula (9) was added for 2 hours before insulin stimulation. For an insulin stimulation, human insulin (Sigma) was used for 15 minutes at a rate of 10 μg/ml. Once stimulation was complete, the cells were washed with cold PBS, lysed in cold (4° C.) lysate buffer (50 mM Tris-HCl, pH 8.0, 150 mM NaCl, 1.0% Triton X-100, 0.1% SDS, 0.5% sodium deoxycholate, 50 mM NaF, 100 μM sodium orthovanadate, 1 mM phenylmethylsulfonyl fluoride and EDTA-free protease inhibitor (Roche), according to manufacturer's instructions, and used in the Western Blot analysis.
In each case, 10 μg protein were isolated on a 12% SDS polyacrylamide gel and transferred to 0.22 μm porous nitrocellulose membranes (Amersham). […]
Visualization was performed by means of the ECL Kit (Enhanced Chemiluminescence, Amersham) using the VersaDoc 5000 Imaging System (BioRad) and the QuantityOne software (BioRad).

[3] = tested on: Drosophila melanogaster flies; test: Lifespan of adult Drosophila melanogaster flies fed with compound (Kaplan-Meier analysis); assay type: in vivo; conditions: for Average Lifespan: ±margin of error
Method: The experiments were conducted on isogenic flies (Drosophila melanogaster) of the genotype white^1118, also called white^− or w^−, and mutants (w^1118; step^k08110/step^SH0323) (strain # 10770 from the public Bloomington Stock Center, genotype: step^k08110/CyO, URL http://flybase.bio.indiana.edu/reports/FBstOO10770.html; strain # FBst0103734 from the public Szeged Stock Center, genotype: step^SH0323/CyO, URL http://flybase.bio.indiana.edu/reports/FBst0103734.html), in which the Drosophila cytohesin steppke is mutated and therefore defective.
By crossing the two steppke alleles k08110 and SH0323 eight times with whites flies, an isogenic genetic background is produced, which permits a comparison of the lifespans between the genotypes of the type white^1118 and the mutants (w^1118; step^k08110/step^SH0323). The average lifespan of the wild type was approximately 25 days, while that of the mutants (w^1118; step^k08110/step^SH0323) was approximately 30 days.
To produce the special food, 32.5 g autolysed yeast (Fluka (Catalog No. 73145)) and 10 g agar (Difco (Catalog No. 281230)) were mixed with 300 ml water (demineralized, Roth (Catalog No. 3175)) and autoclaved at 120° C. for 20 minutes. The solution was cooled to 60° C., and 32.5 g α-D(+)-glucose monohydrate (Roth (Catalog No. 6887)) were added under stirring. 15 ml 10% (w/v) p-hydroxybenzoic acid methylester (Sigma (Catalog No. H3647)) solution dissolved in 70% (v/v) ethanol (Roth (Catalog No. 9065)) and 1.35 ml dimethylsulfoxide (DMSO, Roth (Catalog No. A994)) were then added. Water was then added to this basic solution to a volume of 450 ml, which was then held at a temperature of 60° C. For the control food, 50 ml of a 0.7% (v/v) DMSO solution in water were produced. For the food containing the compounds according to formulas (9) or (25), 0.2 ml of a 25 mM solution of the compounds according to formula (9) or (25) in 100% DMSO were added to 49.8 ml of a 0.3012% DMSO solution in water.
These 50 ml of the control solutions and the solutions containing the compounds according to formula (9) or (25) were each mixed with 450 ml of the basic solution, and were placed in 4 ml amounts in polystyrene containers (height 9.5 cm, diameter 2.4 cm, sealed with cotton wadding) to maintain the flies. After 24 hours, the cooled containers were sealed with cotton wadding and stored at 4° C.
The final concentration of the food components in the control food was 6.5% (w/v) autolysed yeast, 6.5% (w/v) α-D(+)-glucose monohydrate, 2% (w/v) agar, 0.3% (w/v) p-hydroxybenzoic acid methylester, 2.1% ethanol (v/v), 0.34% (v/v) DMSO.
(§1) The final concentration of the food components in the food containing the compound according to formula (9) was 6.5% (w/v) autolysed yeast, 6.5% (w/v) α-D(+)-glucose monohydrate, 2% (w/v) agar, 0.3% (w/v) p-hydroxybenzoic acid methylester, 2.1% ethanol (v/v), 0.34% (v/v) DMSO, 10 μM compound according to formula (9).
as §1, with “(25)” for “(9)”, “(25).” for “(9).”
The larvae were maintained on standard fly food containing 1.1% (w/v) brewer's yeast (“Gewürzmühle Brecht” company), 5.43% (w/v) cornmeal, 0.53% (w/v) filamentous agar (“Gewürzmühle Brecht” company), 6.6% (v/v) sugar beet syrup (Grafschafter), 1.3% (v/v) ethanol (Roth company), 0.13% (w/v) p-hydroxybenzoic acid methylester (Sigma).
24 hours after emergence of the imagines, the adult flies, females and males were separated under a brief CO2 anesthetization lasting less than 2 minutes. During the 24 hours after emergence, the animals were fed using standard fly food. […]

COc1nc(-c2ccc3c(c2)OCO3)n(-c2ccc(NC(=O)CSc3ccccc3)cc2)n1 [Compound (9)]
insulin-dependent phosphorylation of FoxO1A [1]: inhibited | insulin-stimulated phosphorylation of the protein Akt [2]: decreased by half | increase in average lifespan as compared with the untreated control animals ([3]; control animals (w^1118), 10 μM compound in food, P<0.05): 11.5% | Average Lifespan ([3]; genotype w^1118, female flies, 10 μM compound in food): 28.1 (±1.0) Days | Average Lifespan ([3]; genotype w^1118, step^k08110/step^SH0323 mutants, female flies, 10 μM compound in food): 34.6 (±0.8) Days | longer lifespan of treated mutants than untreated control animals ([3]; steppke mutants fed 10 μM compound versus untreated w^1118): 37.3% | increase in the average lifespan of mutants by feeding ([3]; steppke mutants, 10 μM compound in food, versus untreated mutants, P<0.001): 15.3%
